From patent US20260297060A1, “COMPOUNDS FOR THE DEGRADATION OF MUTANT BRAF” (C4 THERAPEUTICS, INC., priority 2023, published 2026)
Where two headings read alike, the source gives them in different places.

Target: T1, BRAF V600E (Homo sapiens, UniProt P15056+Q96SW2, V600E)
T1 construct: knock-in of the HiBiT tag to the endogenous BRAF V600E locus; host or cells: A375.10 (A375 clonal line, CRISPR HiBiT knock-in at the endogenous BRAF V600E locus)
Assay: BRAF V600E HiBiT Degradation Assay
Format: cell-based
In short: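 Endogenous HiBiT knock-in on BRAF V600E in A375 cells (clone A375.10); 11-point half-log series, top 10 μM, 2, 6 or 24 h at 37° C. Lytic HiBiT luminescence, background-subtracted, normalized to DMSO; 4-parameter fit gives DC50, Emax (residual protein) and IP (inflection point).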

[1] = A375.10 cells, BRAF V600E, 2 hours, inflection point, read-out: HiBiT-Degradation A375.10 BRAF 2 hours IP
[2] = A375.10 cells, BRAF V600E, 2 hours, read-out: HiBiT-Degradation A375.10 BRAF 2 hours DC50
[3] = A375.10 cells, BRAF V600E, 2 hours, residual protein remaining, read-out: HiBiT-Degradation A375.10 BRAF 2 hours Emax
[4] = A375.10 cells, BRAF V600E, 6 hours, inflection point, read-out: HiBiT-Degradation A375.10 BRAF 6 hours IP
[5] = A375.10 cells, BRAF V600E, 6 hours, read-out: HiBiT-Degradation A375.10 BRAF 6 hours DC50
[6] = A375.10 cells, BRAF V600E, 6 hours, residual protein remaining, read-out: HiBiT-Degradation A375.10 BRAF 6 hours Emax
[7] = A375.10 cells, HiBiT, BRAF V600E, 24 hours, read-out: HiBiT-Degradation A375.10 BRAF 24 hours DC50
[8] = A375.10 cells, HiBiT, BRAF V600E, 24 hours, read-out: HiBiT-Degradation A375.10 BRAF 24 hours Emax
[9] = A375.10 cells, HiBiT, BRAF V600E, 24 hours, read-out: HiBiT-Degradation A375.10 BRAF 24 hours IP
[10] = A375.10 cells, BRAF V600E, 6 hours, residual protein remaining
[11] = A375.10 cells, HiBiT, BRAF V600E, 24 hours
[12] = read-out: HiBiT-Degradation A375.10 BRAF 2 hours Emax, A375.10 cells, BRAF V600E, 2 hours, residual protein remaining

T1 sequence (P15056 whole entry V600E): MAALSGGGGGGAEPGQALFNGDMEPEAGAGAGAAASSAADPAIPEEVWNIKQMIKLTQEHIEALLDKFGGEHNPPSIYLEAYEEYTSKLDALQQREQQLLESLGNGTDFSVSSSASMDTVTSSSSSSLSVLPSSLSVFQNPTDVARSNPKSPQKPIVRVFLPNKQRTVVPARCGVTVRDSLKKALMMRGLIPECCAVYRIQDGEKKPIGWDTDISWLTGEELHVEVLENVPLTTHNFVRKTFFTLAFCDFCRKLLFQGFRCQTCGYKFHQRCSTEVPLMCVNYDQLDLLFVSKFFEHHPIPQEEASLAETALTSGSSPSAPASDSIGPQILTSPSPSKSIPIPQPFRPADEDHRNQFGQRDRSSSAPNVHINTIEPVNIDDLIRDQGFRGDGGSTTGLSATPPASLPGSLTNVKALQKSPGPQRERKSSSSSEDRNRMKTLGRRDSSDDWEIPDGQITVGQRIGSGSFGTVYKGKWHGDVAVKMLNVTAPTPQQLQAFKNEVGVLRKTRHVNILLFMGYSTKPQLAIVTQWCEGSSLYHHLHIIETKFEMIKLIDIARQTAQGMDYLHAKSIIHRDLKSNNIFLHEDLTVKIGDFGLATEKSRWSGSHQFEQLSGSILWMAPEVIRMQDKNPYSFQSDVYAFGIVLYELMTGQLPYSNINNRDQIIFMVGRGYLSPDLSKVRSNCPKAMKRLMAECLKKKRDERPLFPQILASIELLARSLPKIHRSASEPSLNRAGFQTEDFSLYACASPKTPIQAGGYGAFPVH
T1 sequence (Q96SW2 whole entry): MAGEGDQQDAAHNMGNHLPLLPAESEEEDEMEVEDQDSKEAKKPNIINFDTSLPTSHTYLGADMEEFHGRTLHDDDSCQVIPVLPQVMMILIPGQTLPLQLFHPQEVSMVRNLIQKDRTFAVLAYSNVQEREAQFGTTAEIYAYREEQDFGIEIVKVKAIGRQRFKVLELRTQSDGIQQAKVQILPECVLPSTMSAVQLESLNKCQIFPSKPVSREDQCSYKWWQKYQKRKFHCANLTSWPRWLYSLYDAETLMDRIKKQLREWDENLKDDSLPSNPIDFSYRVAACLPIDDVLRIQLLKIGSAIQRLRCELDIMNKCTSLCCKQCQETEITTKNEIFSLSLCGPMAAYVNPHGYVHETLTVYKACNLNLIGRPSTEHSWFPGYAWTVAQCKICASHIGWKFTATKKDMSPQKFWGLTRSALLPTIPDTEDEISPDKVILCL
T1 sequence (Q16531 whole entry partner): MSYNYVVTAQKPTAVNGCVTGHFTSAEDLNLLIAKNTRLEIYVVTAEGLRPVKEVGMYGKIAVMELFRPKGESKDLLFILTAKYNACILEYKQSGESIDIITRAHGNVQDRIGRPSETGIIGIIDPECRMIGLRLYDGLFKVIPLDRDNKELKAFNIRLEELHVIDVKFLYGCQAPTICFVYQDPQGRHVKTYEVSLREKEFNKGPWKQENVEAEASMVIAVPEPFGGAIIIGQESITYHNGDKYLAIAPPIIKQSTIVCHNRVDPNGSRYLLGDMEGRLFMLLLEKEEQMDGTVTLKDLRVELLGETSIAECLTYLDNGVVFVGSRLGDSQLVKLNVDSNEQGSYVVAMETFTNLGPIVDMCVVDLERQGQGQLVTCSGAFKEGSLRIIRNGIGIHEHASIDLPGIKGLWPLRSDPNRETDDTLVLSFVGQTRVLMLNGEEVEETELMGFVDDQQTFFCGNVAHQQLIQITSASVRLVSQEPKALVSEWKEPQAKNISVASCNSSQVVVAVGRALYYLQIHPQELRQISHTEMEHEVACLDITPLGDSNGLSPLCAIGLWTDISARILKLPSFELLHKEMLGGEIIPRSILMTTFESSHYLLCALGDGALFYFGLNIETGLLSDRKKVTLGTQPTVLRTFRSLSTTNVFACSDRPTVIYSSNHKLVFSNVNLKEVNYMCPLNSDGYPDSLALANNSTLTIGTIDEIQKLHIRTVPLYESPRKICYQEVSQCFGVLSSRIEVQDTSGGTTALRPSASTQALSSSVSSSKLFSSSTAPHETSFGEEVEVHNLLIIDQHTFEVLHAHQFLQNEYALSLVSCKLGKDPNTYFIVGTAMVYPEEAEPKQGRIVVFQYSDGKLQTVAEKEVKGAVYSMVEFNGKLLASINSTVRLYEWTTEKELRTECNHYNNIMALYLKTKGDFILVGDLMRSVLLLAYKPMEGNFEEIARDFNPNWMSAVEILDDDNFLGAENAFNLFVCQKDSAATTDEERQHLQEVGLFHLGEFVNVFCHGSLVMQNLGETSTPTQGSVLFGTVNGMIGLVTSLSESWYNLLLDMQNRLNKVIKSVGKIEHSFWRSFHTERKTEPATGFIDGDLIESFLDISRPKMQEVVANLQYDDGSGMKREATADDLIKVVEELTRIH

Row | DC50 [1] | DC50 [2] | Emax [3] | DC50 [4] | DC50 [5] | Emax [6] | DC50 [7] | Emax [8] | DC50 [9] | HiBiT-Degradation A375.10 BRAF 6 hours Emax [10] | HiBiT-Degradation A375.10 BRAF 24 hours Emax [11] | Emax [12] | HiBiT-Degradation A375.10 BRAF 2 hours Emax | SMILES
1 | < 1000 nM | < 1000 nM | < 50% | < 1000 nM | < 1000 nM | < 50% | < 1000 nM | < 50% | < 1000 nM | – | – | – | – | CCN(C)S(=O)(=O)Nc1ccc(F)c(Oc2ccc3ncn([C@H]4COC5(CCN(C6CCC(c7ccc(N[C@H]8CCC(=O)NC8=O)cc7F)CC6)CC5)C4)c(=O)c3c2)c1C#N (single isomer, unassigned) [Compound 3]
2 | < 1000 nM | < 1000 nM | < 50% | < 1000 nM | < 1000 nM | < 50% | < 1000 nM | < 50% | < 1000 nM | – | – | – | – | CCN(C)S(=O)(=O)Nc1ccc(F)c(Oc2ccc3ncn([C@H]4COC5(CCN(C6CCC(c7ccc(N[C@@H]8CCC(=O)NC8=O)cc7F)CC6)CC5)C4)c(=O)c3c2)c1C#N (single isomer, unassigned) [Compound 4]
3 | < 1000 nM | < 1000 nM | < 50% | < 1000 nM | < 1000 nM | < 50% | < 1000 nM | < 50% | < 1000 nM | – | – | – | – | CCN(C)S(=O)(=O)Nc1ccc(F)c(Oc2ccc3ncn(C4CC5(CCN(C6CCC(c7ccc(NC8CCC(=O)NC8=O)cc7F)CC6)CC5)C4)c(=O)c3c2)c1C#N (single isomer, unassigned) [Compound 6, 6-[2-cyano-3-[[ethyl(methyl)sulfamoyl]amino]-6-fluoro-phenoxy]-3-[7-[4-[4-[(2,6-dioxo-3-piperidyl)amino]-2-fluoro-phenyl]cyclohexyl]-7-azaspiro[3.5]nonan-2-yl]-4-oxo-quinazoline]
4 | < 1000 nM | < 1000 nM | < 50% | < 1000 nM | < 1000 nM | – | < 1000 nM | – | < 1000 nM | *** (<=50%) | *** (<=50%) | – | – | CCN(C)S(=O)(=O)Nc1ccc(F)c(Oc2ccc3ncn(C4CC5(CCN(C6CCC(c7cc8c(cc7F)c(N7CCC(=O)NC7=O)nn8C)CC6)CC5)C4)c(=O)c3c2)c1C#N (single isomer, unassigned) [Compound 8, 6-[2-cyano-3-[[ethyl(methyl)sulfamoyl]amino]-6-fluoro-phenoxy]-3-[7-[4-[3-(2,4-dioxohexahydropyrimidin-1-yl)-5-fluoro-1-methyl-indazol-6-yl]cyclohexyl]-7-azaspiro[3.5]nonan-2-yl]-4-oxo-quinazoline]
5 | < 1000 nM | < 1000 nM | < 50% | < 1000 nM | < 1000 nM | < 50% | < 1000 nM | < 50% | < 1000 nM | – | – | – | – | CCN(C)S(=O)(=O)Nc1ccc(F)c(Oc2ccc3ncn([C@@H]4C[C@@H]5CN(C6CCC(c7ccc(NC8CCC(=O)NC8=O)cc7F)CC6)C[C@@H]5C4)c(=O)c3c2)c1C#N (single isomer, unassigned) [Compound 21]
6 | < 1000 nM | < 1000 nM | < 50% | < 1000 nM | < 1000 nM | < 50% | < 1000 nM | < 50% | < 1000 nM | – | – | – | – | CCN(C)S(=O)(=O)Nc1ccc(F)c(Oc2ccc3ncn([C@H]4CCC5(CCN(C6CCC(c7ccc(NC8CCC(=O)NC8=O)cc7F)CC6)CC5)C4)c(=O)c3c2)c1C#N (single isomer, unassigned) [Compound 24]
7 | < 1000 nM | < 1000 nM | – | < 1000 nM | < 1000 nM | < 50% | < 1000 nM | < 50% | < 1000 nM | – | – | < 50% | – | CCN(C)S(=O)(=O)Nc1ccc(F)c(Oc2ccc3ncn([C@H]4COC5(CCN(C6CCC(c7cc8c(cc7F)c(N7CCC(=O)NC7=O)nn8C)CC6F)CC5)C4)c(=O)c3c2)c1C#N (single isomer, unassigned) [Compound 28]
8 | < 1000 nM | > 10000 nM | – | – | – | – | – | – | – | – | – | 50 to 90% | – | CCN(C)S(=O)(=O)Nc1ccc(F)c(Oc2ccc3ncn([C@@H]4CCC5(CCN(C6CCC(c7cc8c(cc7F)c(N7CCC(=O)NC7=O)nn8C)CC6)CC5)C4)c(=O)c3c2)c1C#N (single isomer, unassigned) [Compound 31]
9 | < 1000 nM | < 1000 nM | – | < 1000 nM | < 1000 nM | < 50% | < 1000 nM | < 50% | < 1000 nM | – | – | < 50% | – | CCN(C)S(=O)(=O)Nc1ccc(F)c(Oc2ccc3ncn([C@H]4CCC5(CCN(C6CCC(c7cc8c(cc7F)c(N7CCC(=O)NC7=O)nn8C)CC6)CC5)C4)c(=O)c3c2)c1C#N (single isomer, unassigned) [Compound 33]
10 | < 1000 nM | < 1000 nM | – | < 1000 nM | < 1000 nM | < 50% | < 1000 nM | < 50% | < 1000 nM | – | – | < 50% | – | CCN(C)S(=O)(=O)Nc1ccc(F)c(Oc2ccc3ncn([C@H]4COC5(CCC(N6CCC(c7cc8c(cc7F)c(N7CCC(=O)NC7=O)nn8C)C(F)(F)C6)CC5)C4)c(=O)c3c2)c1C#N (single isomer, unassigned) [Compound 38]
11 | < 1000 nM | < 1000 nM | – | < 1000 nM | < 1000 nM | – | < 1000 nM | – | < 1000 nM | *** (<=50%) | *** (<=50%) | – | *** (<=50%) | CCN(C)S(=O)(=O)Nc1ccc(F)c(Oc2ccc3ncn([C@H]4COC5(CCC(N6CCC(c7cc8c(cc7F)c(N7CCC(=O)NC7=O)nn8C)C(F)(F)C6)CC5)C4)c(=O)c3c2)c1C#N (single isomer, unassigned) [Compound 39]
12 | < 1000 nM | < 1000 nM | – | < 1000 nM | < 1000 nM | < 50% | < 1000 nM | < 50% | < 1000 nM | – | – | < 50% | – | CCN(C)S(=O)(=O)Nc1ccc(F)c(Oc2ccc3ncn([C@H]4COC5(CCN(C6CCC(c7cc8c(cc7F)c(N7CCC(=O)NC7=O)nn8C)CC6)CC5)C4)c(=O)c3c2F)c1C#N (single isomer, unassigned) [Compound 41]
13 | < 1000 nM | < 1000 nM | 50 to 90% | < 1000 nM | < 1000 nM | < 50% | < 1000 nM | < 50% | < 1000 nM | – | – | – | – | CCN(C)S(=O)(=O)Nc1ccc(F)c(Oc2ccc3ncn([C@H]4COC5(CCN(C6CCC(c7cc8c(cc7F)c(N7CCC(=O)NC7=O)nn8C)CC6O)CC5)C4)c(=O)c3c2)c1C#N (single isomer, unassigned) [Compound 43]
14 | < 1000 nM | < 1000 nM | – | < 1000 nM | < 1000 nM | < 50% | < 1000 nM | < 50% | < 1000 nM | – | – | < 50% | – | CCN(C)S(=O)(=O)Nc1ccc(F)c(Oc2ccc3ncn([C@@H]4COC5(CCN(C6CCC(c7cc8c(cc7F)c(N7CCC(=O)NC7=O)nn8C)CC6)CC5)C4)c(=O)c3c2F)c1C#N (single isomer, unassigned) [Compound 46]
